Data as given in patent US8329149B2, “Topical lightening composition and uses thereof” (Avon Products, Inc., priority 2009, dated 2012).

Test system: B16 mouse melanoma cells
Test: B16 inhibition assay (melanin synthesis, normalized to MTT cell viability)
Type: cell-based
Conditions: 7 days
Experimental: The B16 assay uses a cell line derived from mice with inhibition of tyrosinase as the end point. For the B16 assay, the active oxobutanoic acid tyrosinase inhibitors as disclosed herein in Table 1 were tested in a monolayer cell culture of B16 mouse melanoma cells. These cells are known to constitutively produce melanin and are a commonly utilized and accepted model system for monitoring the inhibition of melanin synthesis.
The B16 mouse melanoma cells were seeded (ATCC, cat. #: CRL-6475) into 96-well tissue culture-treated plates (BD Falcon) and treated with test actives diluted in DMEM without phenol red (Mediatech; cat. #: 17-205-CV) and examined for their ability to modulate pigment formation. Kojic acid was used as the positive control inhibitor. Cells were exposed to diluted test material or controls for 7 days. Following the treatment period, the level of pigment produced or melanin synthesized was quantified by reading the absorbance at 540 nm using a standard microplate reader (Tecan Group Ltd.).
After quantifying the amount of melanin, cell viability was determined using the MTT conversion method. The MTT conversion method measures the reduction of the MTT dye from a yellow colored, water-soluble, tetrazolium salt to a bluish-purple colored insoluble formazan precipitate by NAD(P)H-dependent microsomal dehydrogenase enzymes, which only function in viable cells. The intensity of the blue color is indicative of cell viability. After quantifying the amount of melanin pigment produced, the cells were exposed to MTT dye solution (1 mg/ml) for two to three hours. Formazan material was solubilized with reagent alcohol (95% ethanol: 5% isopropanol) and shaken on an orbital shaker for 15-30 minutes. MTT dye uptake and conversion by viable cells were determined by measuring the extracted formazan at 570 nm using a microplate reader. Total pigmentation was calculated, normalized to cell viability values and expressed as percent activity relative to control. The compounds A-H of Table 1 in a weight percent ranging from about 0.0002% to about 0.002% inhibited tyrosinase by a percent ranging from about 29% to about 87%. […]

Row | SMILES | B16 Results Percent inhibition of melanin (concentration 0.0001%) | B16 Results Percent inhibition of melanin (concentration 0.001%)
1 | Cc1ccc(C(=O)CC(NCc2ccco2)C(=O)O)cc1 (stereo not drawn) [I, 2-(2-furanylmethylamino)-4-(4′-methylphenyl)-4-oxobutanoic acid] | −20% | −71%
2 | Cc1ccc(C(=O)CC(NCc2ccccc2)C(=O)O)cc1 (stereo not drawn) [K, 2-(benzylamino)-4-(4′-methylphenyl)-4-oxobutanoic acid] | −46% | −67%
3 | COc1ccc(C(=O)CC(NCc2cccnc2)C(=O)O)cc1 (stereo not drawn) [J, 2-(3-pyridylmethylamino)-4-(4′-methoxyphenyl)-4-oxobutanoic acid] | −27.84% | −53.63%
